Literature values, collected in article PMC9120017, “Inhibition mechanism of the chloride channel TMEM16A by the pore blocker 1PBC” (Nature Communications, 2022).

Test system: TMEM16A
Conditions: cited from earlier work

Row | SMILES | Inhibition of TMEM16A | Selectivity for anion channels of the TMEM16 family over the scramblase TMEM16F
1 | O=S(=O)(O)c1cc(N=C=S)ccc1C=Cc1ccc(N=C=S)cc1S(=O)(=O)O [DIDS, 4,4′-Diisothiocyanato-2,2′-stilbenedisulfonic acid] | inhibit TMEM16A | –
2 | O=C(O)c1c2ccccc2cc2ccccc12 [9-AC, 9-anthracene carboxylate] | inhibit TMEM16A | –
3 | O=C(O)c1cc([N+](=O)[O-])ccc1NCCCc1ccccc1 [NPPB] | – | selective for anion channels of the TMEM16 family over the scramblase TMEM16F
4 | O=C(Nc1ccc([N+](=O)[O-])cc1Cl)c1cc(Cl)ccc1O [niclosamide] | inhibit TMEM16A | –
5 | O=C(O)c1cccnc1Nc1cccc(C(F)(F)F)c1 [NFA] | – | selective for anion channels of the TMEM16 family over the scramblase TMEM16F
